Drawing on ChEMBL document CHEMBL5223124, “Recent applications of covalent chemistries in protein-protein interaction inhibitors” (RSC Med Chem, 2022), this text covers EC50 and Kd for nine compounds.

Broadly, the EC50 is the concentration that produces a half-maximal response. Broadly, the Kd is the concentration at which binding is half-saturated. Low values mean a tighter complex, high ones a looser complex.

Structures are written as SMILES.

Test [1] has as its target Induced myeloid leukemia cell differentiation protein Mcl-1 (Homo sapiens, UniProt Q07820). Briefly: Inhibition of MCL-1 in human MOLP8 cells assessed as increase in caspase 3/7 activation. It counts as cell-based.
Test [2] concerns the target E3 ubiquitin-protein ligase Mdm2 (Homo sapiens, UniProt Q00987). Briefly: Binding affinity to HDM2 (unknown origin).

Sequence of Induced myeloid leukemia cell differentiation protein Mcl-1 (Q07820 whole entry): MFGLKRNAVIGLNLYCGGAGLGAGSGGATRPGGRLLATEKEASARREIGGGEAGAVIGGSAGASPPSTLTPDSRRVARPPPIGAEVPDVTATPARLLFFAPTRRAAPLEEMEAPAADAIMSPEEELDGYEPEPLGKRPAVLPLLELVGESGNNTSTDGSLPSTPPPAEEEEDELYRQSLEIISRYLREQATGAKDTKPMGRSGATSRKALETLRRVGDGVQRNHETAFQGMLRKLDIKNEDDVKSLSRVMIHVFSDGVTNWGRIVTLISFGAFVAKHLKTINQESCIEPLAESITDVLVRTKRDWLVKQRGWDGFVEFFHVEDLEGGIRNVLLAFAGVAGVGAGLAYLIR
Sequence of E3 ubiquitin-protein ligase Mdm2 (Q00987 whole entry): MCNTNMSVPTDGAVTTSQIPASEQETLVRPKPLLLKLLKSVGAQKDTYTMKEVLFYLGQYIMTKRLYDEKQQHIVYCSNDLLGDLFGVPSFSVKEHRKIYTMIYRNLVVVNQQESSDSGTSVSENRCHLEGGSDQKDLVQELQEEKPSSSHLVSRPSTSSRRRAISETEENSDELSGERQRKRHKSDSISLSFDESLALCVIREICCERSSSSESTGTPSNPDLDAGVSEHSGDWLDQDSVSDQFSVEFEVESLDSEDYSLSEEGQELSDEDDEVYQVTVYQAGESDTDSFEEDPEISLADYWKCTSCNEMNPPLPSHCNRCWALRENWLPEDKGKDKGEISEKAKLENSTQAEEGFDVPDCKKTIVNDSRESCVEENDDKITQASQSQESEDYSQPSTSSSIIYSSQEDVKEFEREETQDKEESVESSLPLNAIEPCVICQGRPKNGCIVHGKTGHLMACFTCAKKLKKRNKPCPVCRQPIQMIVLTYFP

On to `Cc1c(-c2cccc3c(CCCOc4cccc5ccccc45)c(C(=O)O)[nH]c23)c(COc2ccc(B(O)O)cc2)nn1C`, for which the EC50 in test [1] is more than 11000 nM.

As for `CC(=O)c1cc(OCc2nn(C)c(C)c2-c2cccc3c(CCCOc4cccc5ccccc45)c(C(=O)O)[nH]c23)ccc1B(O)O`, the EC50 in test [1] is 1170 nM.

Take `Cc1c(-c2cccc3c(CCCOc4cccc5ccccc45)c(C(=O)O)[nH]c23)c(COc2ccc(B(O)O)c(C=O)c2)nn1C`: the EC50 in test [1] came out at 460 nM.

On to `Cc1c(-c2cccc3c(CCCOc4cccc5ccccc45)c(C(=O)O)[nH]c23)c(COc2cccc(C=O)c2)nn1C`, for which, in test [1], the EC50 is more than 11000 nM.

Consider `COc1ccc(C2=NC(c3ccc(Cl)cc3)C(c3ccc(Cl)cc3)N2C(=O)N2CCN(C(=O)CCCNC(=O)CCCC(=O)N(CC#N)S(=O)(=O)c3ccccc3)CC2)c(OC(C)C)c1` (centres undefined), for which the Kd in test [2] turned out to be 570 nM.

As to `CC(=O)c1cccc(OCc2nn(C)c(C)c2-c2cccc3c(CCCOc4cccc5ccccc45)c(C(=O)O)[nH]c23)c1`, the EC50 in test [1] turned out to be 2700 nM.

For `Cc1c(-c2cccc3c(CCCOc4cccc5ccccc45)c(C(=O)O)n(C)c23)c(COc2ccc(B(O)O)c(C=O)c2)nn1C`, the EC50 in test [1] came to 75 nM.

Consider `CCc1nn(C)c(CC)c1-c1cccc2c(CCCOc3cccc4ccccc34)c(C(=O)O)n(CCN3CCOCC3)c12`, for which, in test [1], the EC50 was 340 nM.

With `Cc1c(-c2cccc3c(CCCOc4cccc5ccccc45)c(C(=O)O)[nH]c23)c(COc2ccccc2)nn1C`, in test [1], the EC50 was more than 11000 nM.
